The numbers were not newly measured in paper PMC3266668 (Frontiers in Pharmacology, 2012), which cites them from elsewhere.

The structures appear in SMILES notation.

Data set [1] deals with patients after myocardial infarction. Particulars: ref Echt et al., [1991].
A further data set relates to isolated rabbit hearts. The note with it: ref Lu et al., [2010].
The subject of data set [2] is isolated left ventricular wedge preparations. Particulars: ref Lu et al., [2010].

Take `COc1ccc(C(=O)Nc2ccccc2CCC2CCCCN2C)cc1` (stereo not drawn) [encainide]: the “mortality in CAST treatment arms” value in data set [1] was “increased mortality due to arrhythmias”.
Consider `O=C(NCC1CCCCN1)c1cc(OCC(F)(F)F)ccc1OCC(F)(F)F` (stereo not drawn) [flecainide], for which, in data set [1], the “mortality in CAST treatment arms” value was “increased mortality due to arrhythmias”.
Take `CCN(CC)CC(=O)Nc1c(C)cccc1C` [lidocaine]: in the data set on isolated rabbit hearts, the QRS interval effect entry is reported as “small increase in QRS duration” and the ventricular tachycardia result is listed as “did not induce ventricular tachycardia”. Besides, in data set [2], the QRS interval effect entry is reported as “only slightly increased QRS duration” and the ventricular tachycardia result is on record as “without inducing ventricular tachycardia”.
